Measurements: ChEMBL document CHEMBL4665703, “Structurally Diverse Indole Alkaloids with Vasorelaxant Activity from Melodinus hemsleyanus” (J Nat Prod, 2020)
Structures can show the parent of a compound that is named as a salt.

System: Aorta
Assay: Vasorelaxant activity in Sprague-Dawley rat aortic artery assessed as reduction in phenylephrine-induced contractions
Type: functional, tissue-based

SMILES	EC50 [µM]
CC[C@]12CCCN3CC[C@]4(C(=C(C(=O)OC)C1)Nc1cc(O)ccc14)[C@@H]32	> 10
CC[C@]12CCC[N+]3([O-])CC[C@]4(C(=C(C(=O)OC)C1)Nc1cc(O)ccc14)[C@H]23 (some centres not stated)	> 10
CC[C@]12C=CCN3CCc4c(n(c5cc(O)ccc45)[C@](O)(C(=O)OC)C1)[C@@H]32	2.4
CC[C@]12CCCN3CCc4c(n(c5ccccc45)[C@@H](O)C1)[C@@H]32 [VINCANOL]	> 10
CC[C@]12CC(=O)N3CC[C@]4(C(=C(C(=O)OC)C1)Nc1cc(O)ccc14)[C@@H]32	> 10
Cc1ccc(N(CC2=NCCN2)c2cccc(O)c2)cc1 [PHENTOLAMINE MESYLATE]	0.1
CC[C@]12C=CCN3CC[C@]4(C(=C(C(=O)OC)C1)Nc1ccccc14)[C@@H]32 [TABERSONINE]	> 10
COC(=O)[C@@H](C)[C@]12C=CCN3CC[C@@]4(c5ccccc5NC(=O)[C@H]4C1)[C@@H]32	> 10
C[C@H](O)[C@@]12C[C@@H](C(N)=O)c3[nH]c4ccccc4c3CCN(C[C@H](O)[C@H]1O)C2=O	> 10
CC[C@]12C=CCN3CCc4c(n(c5cc(OC)ccc45)[C@](O)(C(=O)OC)C1)[C@@H]32	1.9
COC(=O)[C@@H]1C[C@@]23CCC[N+]4([O-])CC[C@@]5(c6ccccc6N[C@]15CC2)[C@H]34 (some centres not stated)	> 10
C[C@@H]1C(=O)O[C@]23N4CC=C[C@]12C[C@@H]1C(=O)Nc2ccccc2[C@@]13CC4	> 10
CC[C@]12C=CC(=O)N3CC[C@]4(C(=C(C(=O)OC)C1)Nc1ccccc14)[C@@H]32	0.8
CC[C@]12C=CCN3CCc4c(n(c5cc(OC)ccc45)[C@@](O)(C(=O)OC)C1)[C@@H]32	2.2
CC[C@]12C=CCN3CCc4c(n(c5cc(O)ccc45)[C@@](O)(C(=O)OC)C1)[C@@H]32	2.8
COC(=O)[C@@H]1C[C@@]23CCCN4CC[C@@]5(c6ccccc6N[C@]15CC2)[C@@H]43	> 10
C[C@@H]1C(=O)[C@@]23C[C@@]14C=CCN1CC[C@@]2(c2ccccc2NC3=O)[C@@H]14	> 10
CC[C@]12CCCN3CCc4c(n(c5ccccc45)[C@@H](OC)C1)[C@@H]32	> 10
C[C@H]1C(=O)[C@@]23C[C@@]14C=CCN1CC[C@@]2(c2ccccc2NC3=O)[C@@H]14	> 10
CC[C@]12C=CCN3CCc4c(n(c5ccccc45)[C@](O)(C(=O)OC)C1)[C@@H]32	3.8
CC[C@]12C=CCN3CCc4c(n(c5ccccc45)[C@@](O)(C(=O)OC)C1)[C@@H]32	1.9
CC[C@@]12CC(C(=O)OC)=C3Nc4cc(O)ccc4[C@@]34CCN(C(=O)[C@H]3O[C@H]31)[C@@H]24	> 10
